Measurements published in patent publication US9956198B2, “Furo[3,4-b]pyran compounds and pharmaceutical uses” (Victoria Link Limited, priority 2013, dated 2018).
Where two headings read alike, the source gives them in different places.

How the values were obtained:
c-Src (sarcoma) kinase = c-Src (sarcoma) kinase (Homo sapiens, UniProt P12931); details: cited from earlier work
[1] = system: PTH-induced bone resorption; details: cited from earlier work
[2] = system: HL-60 (human leukaemia) cell line; assay: MTT cell proliferation assay, HL-60; assay type: cell-based; details: HL-60, MTT assay, 2 days, read-out: IC50, growth inhibition
Description: (§1) Cancer assays were performed using MTT cell proliferation assays with three different immortalised cell lines: a human leukaemia cell line (HL-60), an ovarian cancer cell line (1A9) and a breast cancer cell line (MCF7).
(§2) HL-60, 1A9 and MCF cells were cultured at 37° C. in a 5% CO2 in air atmosphere in RPMI-1640 medium supplemented with 10% fetal calf serum, 100 units/mL penicillin, and 100 units/mL streptomycin (with 0.1% insulin added to the medium for 1A9 and MCF7 cell cultures). An MTT cell proliferation assay was used that involved the reduction of 3-(4,5-dimethylthiazol-2-yl)-2,5-diphenoyltetrazolium bromide (MTT) by viable cells as previously described.^14 Cells were treated with compounds of the invention in 96-well plates (duplicate wells) for 2 days (for HL-60) or 3 days (for 1A9 or MCF7), then incubated with 5 mg/mL MTT in phosphate-buffered saline for 2 h. The blue crystals that formed were solubilised in 10% sodium dodecyl sulfate, 45% dimethylformamide and the absorbance of the solutions measured at 570 nm in a multiwell plate reader (EnSpire™ 2300 Multiplate Reader from Perkin Elmer, Waltham, USA. The half-maximal inhibitory concentration (IC50) was calculated from a concentration-response curve using Sigma Plot software v8 (Systat Software Inc. Point Richmond, Calif.).

[3] = system: 1A9 (ovarian cancer) cell line; assay: MTT cell proliferation assay, 1A9; assay type: cell-based; details: 1A9, MTT assay, 3 days; read-out: IC50, growth inhibition
Description: as §1, §2

[4] = system: MCF7 (breast cancer) cell line; assay: MTT cell proliferation assay, MCF7; assay type: cell-based; details: Homo sapiens, 72 h, 3 days, read-out: IC50, growth inhibition
Description: as §1, §2

TXK = molecular target: T1, TXK (Homo sapiens, UniProt P42681); assay: SelectScreen kinase profiling, Z'-LYTE protocol; assay type: biochemical
T1 sequence (P42681 1-527): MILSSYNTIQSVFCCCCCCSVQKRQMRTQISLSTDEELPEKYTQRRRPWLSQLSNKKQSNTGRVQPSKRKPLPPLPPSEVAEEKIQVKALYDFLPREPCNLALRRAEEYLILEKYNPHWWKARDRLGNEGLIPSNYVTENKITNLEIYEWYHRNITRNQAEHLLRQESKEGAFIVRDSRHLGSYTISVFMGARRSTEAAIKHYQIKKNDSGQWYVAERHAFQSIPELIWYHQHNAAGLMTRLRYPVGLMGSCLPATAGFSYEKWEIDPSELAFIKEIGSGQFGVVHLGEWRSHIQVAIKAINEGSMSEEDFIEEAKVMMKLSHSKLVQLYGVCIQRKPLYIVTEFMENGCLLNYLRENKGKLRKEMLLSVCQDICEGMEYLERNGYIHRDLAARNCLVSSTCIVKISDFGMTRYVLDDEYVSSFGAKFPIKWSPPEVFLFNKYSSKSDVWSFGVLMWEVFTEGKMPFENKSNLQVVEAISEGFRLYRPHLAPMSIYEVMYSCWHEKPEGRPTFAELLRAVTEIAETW
Description: (§3) Kinase inhibition assays were conducted by Life Technologies using their SelectScreen® Whole Panel ACCESS Biochemical Kinase Profiling Service. The Z'-LYTE® Screening Protocol was used to obtain the results for the following kinases: AMPK A2/B1/G1, BMX, BTK, MAPK14 (p38 alpha), PLK1, TXK. The LanthaScreen Protocol was used to obtain the result for the following kinase: NUAK2.
(§4) Compound 10 was assessed for kinase inhibition by Life Technologies using the SelectScreen® Whole Panel ACCESS Biochemical Kinase Profiling Service. The Z'-LYTE® Screening Protocol was used to obtain the results for the following kinases: AMPK A2/B1/G1, BMX, BTK, MAPK14 (p38 alpha), PLK1, TXK. The LanthaScreen Protocol was used to obtain the result for the following kinase: NUAK2.

[5] = molecular target: BTK (Bruton's tyrosine kinase) (Homo sapiens, UniProt Q06187); assay: SelectScreen kinase profiling, Z'-LYTE protocol; assay type: biochemical
BTK (Bruton's tyrosine kinase), sequence (Q06187 whole entry): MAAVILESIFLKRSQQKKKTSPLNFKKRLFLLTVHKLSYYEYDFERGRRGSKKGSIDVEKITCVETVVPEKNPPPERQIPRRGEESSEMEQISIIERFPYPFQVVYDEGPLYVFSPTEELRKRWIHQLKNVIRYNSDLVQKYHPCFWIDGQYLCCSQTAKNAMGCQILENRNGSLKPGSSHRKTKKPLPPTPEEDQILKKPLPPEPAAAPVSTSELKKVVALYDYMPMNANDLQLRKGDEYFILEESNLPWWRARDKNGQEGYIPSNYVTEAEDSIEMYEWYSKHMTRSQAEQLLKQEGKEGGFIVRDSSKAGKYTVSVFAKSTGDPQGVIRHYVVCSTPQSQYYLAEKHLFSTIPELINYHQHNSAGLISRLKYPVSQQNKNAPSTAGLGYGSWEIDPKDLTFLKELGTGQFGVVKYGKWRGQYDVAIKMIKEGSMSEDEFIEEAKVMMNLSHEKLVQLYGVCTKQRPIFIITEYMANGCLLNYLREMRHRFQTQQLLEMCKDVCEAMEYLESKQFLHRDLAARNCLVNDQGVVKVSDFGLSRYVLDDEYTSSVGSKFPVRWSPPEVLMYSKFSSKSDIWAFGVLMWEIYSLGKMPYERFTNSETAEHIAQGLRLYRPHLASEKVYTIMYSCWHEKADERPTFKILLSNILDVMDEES
Description: as §3, §4

PLK1 = PLK1 (Homo sapiens, UniProt P53350); assay: SelectScreen kinase profiling, Z'-LYTE protocol; assay type: biochemical
PLK1, sequence (P53350 whole entry): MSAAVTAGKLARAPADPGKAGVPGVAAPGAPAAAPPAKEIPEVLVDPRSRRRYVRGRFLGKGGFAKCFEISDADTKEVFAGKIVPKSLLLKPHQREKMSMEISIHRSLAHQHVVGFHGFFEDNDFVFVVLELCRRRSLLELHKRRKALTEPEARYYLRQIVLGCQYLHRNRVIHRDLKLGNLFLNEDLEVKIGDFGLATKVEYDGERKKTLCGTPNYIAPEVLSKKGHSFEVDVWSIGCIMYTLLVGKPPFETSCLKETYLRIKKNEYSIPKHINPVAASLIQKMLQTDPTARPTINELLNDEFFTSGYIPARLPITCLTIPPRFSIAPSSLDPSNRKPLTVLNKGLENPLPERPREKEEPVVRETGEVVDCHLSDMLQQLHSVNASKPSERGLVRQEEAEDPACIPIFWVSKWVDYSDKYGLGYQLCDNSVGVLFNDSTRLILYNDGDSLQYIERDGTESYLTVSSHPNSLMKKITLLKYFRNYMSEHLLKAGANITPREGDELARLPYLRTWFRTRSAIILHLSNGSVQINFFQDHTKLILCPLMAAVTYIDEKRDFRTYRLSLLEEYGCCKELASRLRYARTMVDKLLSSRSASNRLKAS
Description: as §3, §4

MAPK14 (p38 alpha) = MAPK14 (p38 alpha) (Homo sapiens, UniProt Q16539); assay: SelectScreen kinase profiling, Z'-LYTE protocol; assay type: biochemical
MAPK14 (p38 alpha), sequence (Q16539 whole entry): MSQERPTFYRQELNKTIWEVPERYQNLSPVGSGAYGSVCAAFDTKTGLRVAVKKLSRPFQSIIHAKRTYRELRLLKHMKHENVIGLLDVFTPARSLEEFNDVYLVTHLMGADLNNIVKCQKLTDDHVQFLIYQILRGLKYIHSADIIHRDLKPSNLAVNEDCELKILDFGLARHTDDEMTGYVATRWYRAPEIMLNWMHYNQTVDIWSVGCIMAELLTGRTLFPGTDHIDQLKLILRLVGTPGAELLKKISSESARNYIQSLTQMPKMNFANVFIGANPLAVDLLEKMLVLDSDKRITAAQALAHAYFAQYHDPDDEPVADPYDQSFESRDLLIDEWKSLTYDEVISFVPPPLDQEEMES
Description: as §3, §4

BMX = molecular target: T2, BMX (Homo sapiens, UniProt P51813); assay: SelectScreen kinase profiling, Z'-LYTE protocol; assay type: biochemical
T2 sequence (P51813 1-675): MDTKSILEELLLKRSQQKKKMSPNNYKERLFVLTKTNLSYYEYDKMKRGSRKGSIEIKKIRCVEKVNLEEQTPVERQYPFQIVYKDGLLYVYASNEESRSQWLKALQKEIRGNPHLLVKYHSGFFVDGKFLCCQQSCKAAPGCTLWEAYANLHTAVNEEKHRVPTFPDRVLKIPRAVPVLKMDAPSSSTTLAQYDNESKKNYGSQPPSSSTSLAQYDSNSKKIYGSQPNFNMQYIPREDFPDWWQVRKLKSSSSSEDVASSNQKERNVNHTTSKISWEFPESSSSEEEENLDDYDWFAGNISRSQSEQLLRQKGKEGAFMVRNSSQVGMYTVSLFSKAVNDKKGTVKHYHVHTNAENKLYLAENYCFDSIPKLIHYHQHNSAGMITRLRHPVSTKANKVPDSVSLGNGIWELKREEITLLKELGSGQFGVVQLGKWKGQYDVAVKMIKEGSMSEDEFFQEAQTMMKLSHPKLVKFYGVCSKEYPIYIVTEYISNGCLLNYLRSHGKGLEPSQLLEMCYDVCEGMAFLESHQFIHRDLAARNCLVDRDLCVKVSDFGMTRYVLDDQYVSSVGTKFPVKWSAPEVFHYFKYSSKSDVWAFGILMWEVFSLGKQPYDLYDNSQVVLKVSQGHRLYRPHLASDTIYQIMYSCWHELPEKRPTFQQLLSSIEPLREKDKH
Description: as §3, §4

AMPK A2/B1/G1 = AMPK A2/B1/G1 (Homo sapiens, UniProt P54646); assay: SelectScreen kinase profiling, Z'-LYTE protocol; assay type: biochemical
AMPK A2/B1/G1, sequence (P54646 whole entry): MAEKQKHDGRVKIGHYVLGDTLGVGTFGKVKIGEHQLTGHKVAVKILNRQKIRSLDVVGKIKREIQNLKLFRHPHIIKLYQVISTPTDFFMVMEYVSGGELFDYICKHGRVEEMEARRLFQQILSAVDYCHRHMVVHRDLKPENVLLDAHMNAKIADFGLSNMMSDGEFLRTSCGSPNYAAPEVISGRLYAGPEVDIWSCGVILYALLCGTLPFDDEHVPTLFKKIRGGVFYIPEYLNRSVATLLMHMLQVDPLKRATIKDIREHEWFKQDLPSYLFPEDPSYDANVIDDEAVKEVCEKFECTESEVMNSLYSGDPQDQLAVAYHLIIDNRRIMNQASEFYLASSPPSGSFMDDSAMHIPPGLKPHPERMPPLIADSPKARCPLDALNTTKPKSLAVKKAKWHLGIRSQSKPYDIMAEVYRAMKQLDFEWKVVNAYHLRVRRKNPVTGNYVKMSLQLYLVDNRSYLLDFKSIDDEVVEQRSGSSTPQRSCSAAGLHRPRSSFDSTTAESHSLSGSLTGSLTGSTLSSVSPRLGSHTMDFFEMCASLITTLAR
AMPK A2/B1/G1, sequence (Q9Y478 whole entry partner): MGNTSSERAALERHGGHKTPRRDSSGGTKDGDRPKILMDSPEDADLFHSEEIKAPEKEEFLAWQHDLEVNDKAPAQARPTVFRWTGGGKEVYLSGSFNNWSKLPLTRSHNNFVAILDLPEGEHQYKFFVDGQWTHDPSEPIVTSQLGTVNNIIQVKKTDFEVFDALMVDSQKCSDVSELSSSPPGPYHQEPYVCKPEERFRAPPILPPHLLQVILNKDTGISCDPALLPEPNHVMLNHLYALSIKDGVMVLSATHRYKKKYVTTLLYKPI
AMPK A2/B1/G1, sequence (P54619 whole entry partner): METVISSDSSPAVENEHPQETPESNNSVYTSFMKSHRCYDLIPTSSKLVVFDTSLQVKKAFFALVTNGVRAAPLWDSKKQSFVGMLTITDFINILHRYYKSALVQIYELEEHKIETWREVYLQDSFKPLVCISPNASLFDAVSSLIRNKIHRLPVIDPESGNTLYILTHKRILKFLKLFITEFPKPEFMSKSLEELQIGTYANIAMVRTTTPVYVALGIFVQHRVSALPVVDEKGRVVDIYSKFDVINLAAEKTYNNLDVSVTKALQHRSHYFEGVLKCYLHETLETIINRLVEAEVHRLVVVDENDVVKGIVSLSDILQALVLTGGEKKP
Description: as §3, §4

NUAK2 = molecular target: T3, NUAK2 (Homo sapiens, UniProt Q9H093); assay: SelectScreen kinase profiling, LanthaScreen protocol; assay type: biochemical
T3 sequence (Q9H093 1-628): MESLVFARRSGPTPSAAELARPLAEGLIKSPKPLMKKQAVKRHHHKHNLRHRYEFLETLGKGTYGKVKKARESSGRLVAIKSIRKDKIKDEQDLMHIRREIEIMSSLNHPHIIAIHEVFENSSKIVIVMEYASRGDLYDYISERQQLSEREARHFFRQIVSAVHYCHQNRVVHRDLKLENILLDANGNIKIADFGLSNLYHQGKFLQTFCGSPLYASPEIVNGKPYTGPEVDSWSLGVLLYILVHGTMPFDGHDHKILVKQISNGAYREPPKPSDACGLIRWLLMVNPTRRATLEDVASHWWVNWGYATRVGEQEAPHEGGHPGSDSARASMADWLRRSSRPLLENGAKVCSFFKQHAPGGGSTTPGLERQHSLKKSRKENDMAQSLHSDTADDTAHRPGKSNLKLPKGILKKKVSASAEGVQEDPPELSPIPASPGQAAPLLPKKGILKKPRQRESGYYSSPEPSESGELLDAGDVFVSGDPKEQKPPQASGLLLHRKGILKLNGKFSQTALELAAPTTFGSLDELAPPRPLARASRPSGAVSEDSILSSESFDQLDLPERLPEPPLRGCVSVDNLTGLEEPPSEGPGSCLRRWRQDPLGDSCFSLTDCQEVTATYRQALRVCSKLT
Description: as §3, §4

[6] = read-out: Inhibition (IC50 at 10 μM)
[7] = single-point, read-out: percent inhibition

c-Src (sarcoma) kinase, sequence (P12931 whole entry): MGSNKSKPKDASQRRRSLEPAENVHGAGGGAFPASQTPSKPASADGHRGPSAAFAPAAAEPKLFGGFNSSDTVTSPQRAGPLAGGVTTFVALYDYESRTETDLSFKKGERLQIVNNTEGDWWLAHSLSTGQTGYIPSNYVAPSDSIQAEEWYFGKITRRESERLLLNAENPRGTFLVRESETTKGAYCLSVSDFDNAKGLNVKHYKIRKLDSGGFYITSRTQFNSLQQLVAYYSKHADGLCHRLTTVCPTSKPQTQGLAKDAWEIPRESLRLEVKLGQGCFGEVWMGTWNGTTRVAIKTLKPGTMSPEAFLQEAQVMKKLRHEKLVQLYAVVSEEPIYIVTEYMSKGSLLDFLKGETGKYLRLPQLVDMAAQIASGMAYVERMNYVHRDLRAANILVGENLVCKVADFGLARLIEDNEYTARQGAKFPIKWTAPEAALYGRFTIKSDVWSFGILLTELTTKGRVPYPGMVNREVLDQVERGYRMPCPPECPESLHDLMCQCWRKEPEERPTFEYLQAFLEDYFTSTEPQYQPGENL

Compound: C/C=C/[C@H]1O[C@H]2C(=C[C@H]1O)C(=O)O[C@H]2C [(−)-TAN-2483B]
- inhibition of c-Src (sarcoma) kinase (c-Src (sarcoma) kinase): inhibition
- inhibition of PTH-induced bone resorption [1]: inhibition

Compound: C[C@@H]1OC(=O)C2=C[C@@H](O)[C@@H](/C=C/CO)O[C@@H]21 [Compound 19, Hydroxy-TAN-2483B]
- IC50 ([2]; Homo sapiens, 48 h): 42 µM

Compound: (−)-TAN-2483B E-ethyl ester [Compound 14]
- IC50 [2]: 2.2 µM
- IC50 [3]: 3.4 µM

Compound: CCOC(=O)/C=C\[C@H]1O[C@H]2C(=C[C@H]1O)C(=O)O[C@H]2C [Compound 10, (−)-TAN-2483B Z-ethyl ester]
- IC50 ([2]; Homo sapiens, 48 h): 3.6 µM
- IC50 [4]: 9 µM
- inhibition at 10 µM (TXK; TXK1, at 10 μM, read-out: Inhibition (IC50 at 10 μM)): 71%
- inhibition at 10 µM (TXK; TXK, single-point, at 10 μM, read-out: percent inhibition): 71%
- inhibition at 10 µM [5, 6]: 83%
- inhibition at 10 µM [5, 7]: 83%
- inhibition at 10 µM (PLK1; PLK1, at 10 μM, read-out: Inhibition (IC50 at 10 μM)): 81%
- inhibition at 10 µM (PLK1; PLK1, single-point, at 10 μM, read-out: percent inhibition): 81%
- inhibition at 10 µM (MAPK14 (p38 alpha); MAPK14 (p38 alpha), single-point, at 10 μM, read-out: percent inhibition): 74%
- inhibition at 10 µM (MAPK14 (p38 alpha); MAPK14, at 10 μM, read-out: Inhibition (IC50 at 10 μM)): 74%
- inhibition at 10 µM (BMX; [6]): 80%
- inhibition at 10 µM (BMX; [7]): 80%
- inhibition at 10 µM (AMPK A2/B1/G1; AMPK A2/B1/G1, at 10 μM, read-out: Inhibition (IC50 at 10 μM)): 81%
- inhibition at 10 µM (AMPK A2/B1/G1; AMPK A2/B1/G1, single-point, at 10 μM, read-out: percent inhibition): 81%
- inhibition at 10 µM (NUAK2; NUAK2, at 10 μM, read-out: Inhibition (IC50 at 10 μM)): 76%
- inhibition at 10 µM (NUAK2; NUAK2, single-point, at 10 μM, read-out: percent inhibition): 76%

Compound: C/C=C/[C@H]1O[C@@H]2C(=C[C@H]1O)C(=O)O[C@H]2C [(−)-TAN-2483A]
- inhibition of c-Src (sarcoma) kinase (c-Src (sarcoma) kinase): inhibition
- inhibition of PTH-induced bone resorption [1]: inhibition
